The results in this text go back to patent US20230406843A1, “Progranulin Modulators and Methods of Using the Same” (ARKUDA THERAPEUTICS, priority 2020, published 2023).

As a reminder, the EC50 is the midpoint of the concentration-response curve.

The structures appear in SMILES notation.

The test system of the experiment is progranulin. The experiment can be described thus: Progranulin induction cellular assay (ELISA of secreted mouse PGRN). The settings on record: progranulin induction assay; mouse pMG, primary cortical neurons and BV-2 cell lines named, cell type not given; ELISA-based readout; read-out: EC50. In kind it is cell-based. Here is the method: Cellular Assays: Progranulin induction assay. To measure the efficacy of compounds, a progranulin induction cellular assay in mouse primary microglia (pMG), primary cortical neurons, and BV-2 cell lines is used. BV-2 cells are split the day before plating into a 96 well plate format at approximately 80%. Cells should be plated the day before and allowed for 1 hour attachment period and for 16 hour incubation. Levels of progranulin secreted into the cell culture medium or retained in the cell lysate can be quantified using an ELISA-based readout and measurement of secreted mouse PGRN in the medium was assessed by the methodology published by Ghidoni et al. 2012. Standard ELISA kits to measure PGRN are available from vendors such as Adipogen, R&D, and Biovendor.
Table B below presents the results of a progranulin induction assay as described above.
Background: In an ELISA, binding on a coated surface is turned into a signal by an enzyme label.
On to `CCN[C@H]1CO[C@@H](C(=O)N2CCc3ccccc3[C@@H]2c2ccc(F)cc2)OC1` [Compound 5050, (cis-5-(ethylamino)-1,3-dioxan-2-yl)((S)-1-(4-fluorophenyl)-3,4-dihydroisoquinolin-2(1H)-yl)methanone], for which the EC50 was 350 nM.

With `N[C@H]1C[C@H](C(=O)N2CCc3ccccc3[C@@H]2c2ccc(F)cc2)OC[C@H]1O` [Compound 5051, ((2R,4S,5S)-4-amino-5-hydroxytetrahydro-2H-pyran-2-yl)((S)-1-(4-fluorophenyl)-3,4-dihydroisoquinolin-2(1H)-yl)methanone], the EC50 turned out to be 6 nM.

As for `N[C@@H]1CO[C@@H](C(=O)N2CCc3ccccc3[C@@H]2c2ccc(F)cc2)C[C@@H]1O` [Compound 5052, ((2R,4S,5R)-5-amino-4-hydroxytetrahydro-2H-pyran-2-yl)((S)-1-(4-fluorophenyl)-3,4-dihydroisoquinolin-2(1H)-yl)methanone], the EC50 turned out to be 18 nM.

Take `N[C@@H]1CO[C@H](C(=O)N2CCc3ccccc3[C@@H]2c2ccc(F)cc2)C[C@@H]1O` [Compound 5053, ((2S,4S,5R)-5-amino-4-hydroxytetrahydro-2H-pyran-2-yl)((S)-1-(4-fluorophenyl)-3,4-dihydroisoquinolin-2(1H)-yl)methanone]: the EC50 was 77 nM.

Regarding `N[C@@H]1C[C@@H](C(=O)N2CCc3ccccc3[C@@H]2c2ccc(F)cc2)OC[C@@H]1O` [Compound 5054, ((2S,4R,5R)-4-amino-5-hydroxytetrahydro-2H-pyran-2-yl)((S)-1-(4-fluorophenyl)-3,4-dihydroisoquinolin-2(1H)-yl)methanone], the EC50 came to 130 nM.

With `N[C@H]1C[C@H](C(=O)N2CCc3ccccc3[C@@H]2c2ccc(F)cc2)OC[C@@H]1O` [Compound 5055, ((2R,4S,5R)-4-amino-5-hydroxytetrahydro-2H-pyran-2-yl)((S)-1-(4-fluorophenyl)-3,4-dihydroisoquinolin-2(1H)-yl)methanone], the EC50 worked out at 56 nM.

In the case of `N[C@H]1CO[C@H](C(=O)N2CCc3ccccc3[C@@H]2c2ccc(F)cc2)C[C@@H]1O` [Compound 5056, ((2S,4S,5S)-5-amino-4-hydroxytetrahydro-2H-pyran-2-yl)((S)-1-(4-fluorophenyl)-3,4-dihydroisoquinolin-2(1H)-yl)methanone], the half-maximal effective concentration (EC50) came out at 127 nM.

Consider `N[C@@H]1CO[C@@H](C(=O)N2CCc3ccccc3[C@@H]2c2ccc(F)cc2)C[C@H]1O` [Compound 5057, ((2R,4R,5R)-5-amino-4-hydroxytetrahydro-2H-pyran-2-yl)((S)-1-(4-fluorophenyl)-3,4-dihydroisoquinolin-2(1H)-yl)methanone], for which the EC50 is 133 nM.

As to `N[C@H]1C[C@@H](C(=O)N2CCc3ccccc3[C@@H]2c2ccc(F)cc2)OC[C@H]1O` [Compound 5058, ((2S,4S,5S)-4-amino-5-hydroxytetrahydro-2H-pyran-2-yl)((S)-1-(4-fluorophenyl)-3,4-dihydroisoquinolin-2(1H)-yl)methanone], the concentration for a half-maximal effect (EC50) was 290 nM.

On to `N[C@H]1CO[C@H](C(=O)N2CCc3ccccc3[C@@H]2c2ccc(F)cc2)C[C@@H]1F` [Compound 5059, ((2S,4S,5S)-5-amino-4-fluorotetrahydro-2H-pyran-2-yl)((S)-1-(4-fluorophenyl)-3,4-dihydroisoquinolin-2(1H)-yl)methanone], for which the EC50 was 344 nM.

On to `N[C@H]1CO[C@H](C(=O)N2CCc3ccccc3[C@@H]2c2ccc(F)cc2)CC1(F)F` [Compound 5060, ((2S,5S)-5-amino-4,4-difluorotetrahydro-2H-pyran-2-yl)((S)-1-(4-fluorophenyl)-3,4-dihydroisoquinolin-2(1H)-yl)methanone], for which the EC50 is 5850 nM.

Turning to `N[C@@H]1CO[C@@H](C(=O)N2CCc3ccccc3[C@@H]2c2ccc(F)cc2)C[C@H]1F` [Compound 5061, ((2R,4R,5R)-5-amino-4-fluorotetrahydro-2H-pyran-2-yl)((S)-1-(4-fluorophenyl)-3,4-dihydroisoquinolin-2(1H)-yl)methanone], the EC50 is 478 nM.

As for `CO[C@@H]1CO[C@@H](C(=O)N2CCc3ccccc3[C@@H]2c2ccc(F)cc2)C[C@@H]1N` [Compound 5062, ((2R,4S,5S)-4-amino-5-methoxytetrahydro-2H-pyran-2-yl)((S)-1-(4-fluorophenyl)-3,4-dihydroisoquinolin-2(1H)-yl)methanone], the EC50 was 49 nM.

On to `CCO[C@@H]1CO[C@@H](C(=O)N2CCc3ccccc3[C@@H]2c2ccc(F)cc2)C[C@@H]1N` [Compound 5063, ((2R,4S,5S)-4-amino-5-ethoxytetrahydro-2H-pyran-2-yl)((S)-1-(4-fluorophenyl)-3,4-dihydroisoquinolin-2(1H)-yl)methanone], for which the EC50 is 35 nM.

For the molecule `N[C@@H]1CO[C@@H](C(=O)N2CCc3ccccc3[C@@H]2c2ccc(F)cc2)C[C@@H]1F` [Compound 5064, ((2R,4S,5R)-5-amino-4-fluorotetrahydro-2H-pyran-2-yl)((S)-1-(4-fluorophenyl)-3,4-dihydroisoquinolin-2(1H)-yl)methanone], the EC50 was determined as 102 nM.

Consider `N[C@H]1CO[C@@H](C(=O)N2CCc3ccccc3[C@@H]2c2ccc(F)cc2)C[C@H]1O` [Compound 5065, ((2R,4R,5S)-5-amino-4-hydroxytetrahydro-2H-pyran-2-yl)((S)-1-(4-fluorophenyl)-3,4-dihydroisoquinolin-2(1H)-yl)methanone], for which the EC50 was 324 nM.

Take `N[C@@H]1C[C@@H](C(=O)N2CCc3ccccc3[C@@H]2c2ccc(F)cc2)OC[C@H]1O` [Compound 5068, ((2S,4R,5S)-4-amino-5-hydroxytetrahydro-2H-pyran-2-yl)((S)-1-(4-fluorophenyl)-3,4-dihydroisoquinolin-2(1H)-yl)methanone]: the EC50 is 376 nM.

With `N[C@H]1C[C@H](C(=O)N2CCc3ccccc3[C@@H]2c2ccc(F)cc2)OC[C@@H]1F` [Compound 5069, ((2R,4S,5R)-4-amino-5-fluorotetrahydro-2H-pyran-2-yl)((S)-1-(4-fluorophenyl)-3,4-dihydroisoquinolin-2(1H)-yl)methanone], the concentration giving a half-maximal response (EC50) was 142 nM.

Turning to `N[C@H]1CO[C@@H](C(=O)N2CCc3ccccc3[C@@H]2c2ccc(F)cc2)C[C@@H]1O` [Compound 5070, ((2R,4S,5S)-5-amino-4-hydroxytetrahydro-2H-pyran-2-yl)((S)-1-(4-fluorophenyl)-3,4-dihydroisoquinolin-2(1H)-yl)methanone], the EC50 was found to be 153 nM.

On to `N[C@@H]1CO[C@H](C(=O)N2CCc3ccccc3[C@@H]2c2ccc(F)cc2)C[C@H]1O` [Compound 5072, ((2S,4R,5R)-5-amino-4-hydroxytetrahydro-2H-pyran-2-yl)((S)-1-(4-fluorophenyl)-3,4-dihydroisoquinolin-2(1H)-yl)methanone], for which the EC50 was found to be 81 nM.

In the case of `CO[C@H]1CO[C@@H](C(=O)N2CCc3ccccc3[C@@H]2c2ccc(F)cc2)C[C@H]1N` [Compound 5073, ((2R,4R,5R)-4-amino-5-methoxytetrahydro-2H-pyran-2-yl)((S)-1-(4-fluorophenyl)-3,4-dihydroisoquinolin-2(1H)-yl)methanone], the EC50 worked out at 159 nM.

`N[C@@H]1C[C@H](C(=O)N2CCc3ccccc3[C@@H]2c2ccc(F)cc2)OC[C@@H]1O` [Compound 5074, ((2R,4R,5R)-4-amino-5-hydroxytetrahydro-2H-pyran-2-yl)((S)-1-(4-fluorophenyl)-3,4-dihydroisoquinolin-2(1H)-yl)methanone]: the EC50 was found to be 230 nM.
